Results published in PubChem BioAssay (NCI).
In brackets after ≈: the same amount, converted by molar mass.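 Growth conditions: 96-well plates. Treatment: test compound, 48 hours, 5 concentrations. Analysis: linear interpolation between bracketing concentrations; unreached endpoints set to highest concentration. GI50 = concentration required for 50% inhibition of growth. TGI is the concentration that stops growth completely.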

How the values were obtained:
Assay in all cases: NCI anticancer screen, dose series, 48 h
EKVX NSCLC = tested on: EKVX NSCLC
IGROV1 ovarian = tested on: IGROV1 ovarian
K-562 leukemia = tested on: K-562 leukemia
U251 CNS = tested on: U251 CNS
MDA-MB-435 = tested on: MDA-MB-435
NCI-H460 lung = tested on: NCI-H460 lung
SNB-19 CNS = tested on: SNB-19 CNS
SF-268 CNS = tested on: SF-268 CNS
HCT-116 colon = tested on: HCT-116 colon
HCT-15 colon = tested on: HCT-15 colon
ACHN renal = tested on: ACHN renal
OVCAR-4 ovarian = tested on: OVCAR-4 ovarian
SNB-75 CNS = tested on: SNB-75 CNS
OVCAR-3 ovarian = tested on: OVCAR-3 ovarian
KM12 colon = tested on: KM12 colon
RPMI-8226 leukemia = tested on: RPMI-8226 leukemia
SF-539 CNS = tested on: SF-539 CNS
HOP-92 NSCLC = tested on: HOP-92 NSCLC
UACC-62 melanoma = tested on: UACC-62 melanoma
M14 melanoma = tested on: M14 melanoma
COLO 205 colon = tested on: COLO 205 colon
TK-10 renal = tested on: TK-10 renal
DU-145 prostate = tested on: DU-145 prostate
MCF7 breast = tested on: MCF7 breast
HOP-62 NSCLC = tested on: HOP-62 NSCLC
OVCAR-8 ovarian = tested on: OVCAR-8 ovarian
HL-60(TB) leukemia = tested on: HL-60(TB) leukemia
MDA-MB-231 breast = tested on: MDA-MB-231 breast
RXF 393 renal = tested on: RXF 393 renal
CCRF-CEM leukemia = tested on: CCRF-CEM leukemia
NCI-H23 lung = tested on: NCI-H23 lung
SW-620 colon = tested on: SW-620 colon
SF-295 CNS = tested on: SF-295 CNS
786-0 renal = tested on: 786-0 renal
UO-31 renal = tested on: UO-31 renal
NCI/ADR-RES ovarian = tested on: NCI/ADR-RES ovarian
SK-MEL-2 melanoma = tested on: SK-MEL-2 melanoma
MOLT-4 leukemia = tested on: MOLT-4 leukemia
OVCAR-5 ovarian = tested on: OVCAR-5 ovarian
HS 578T breast = tested on: HS 578T breast
HT29 colon = tested on: HT29 colon
HCC-2998 colon = tested on: HCC-2998 colon
UACC-257 melanoma = tested on: UACC-257 melanoma
SK-OV-3 ovarian = tested on: SK-OV-3 ovarian
NCI-H226 lung = tested on: NCI-H226 lung
A498 renal = tested on: A498 renal
T-47D breast = tested on: T-47D breast
LOX IMVI melanoma = tested on: LOX IMVI melanoma
NCI-H522 lung = tested on: NCI-H522 lung
MALME-3M melanoma = tested on: MALME-3M melanoma
SK-MEL-28 melanoma = tested on: SK-MEL-28 melanoma
SN12C renal = tested on: SN12C renal
BT-549 breast = tested on: BT-549 breast
SR leukemia = tested on: SR leukemia
PC-3 prostate = tested on: PC-3 prostate
CAKI-1 renal = tested on: CAKI-1 renal
A549 NSCLC = tested on: A549 NSCLC
SK-MEL-5 melanoma = tested on: SK-MEL-5 melanoma

Structure (SMILES): CCCCCCCCCCCCCCCCCc1nccn1CCOCCO
- GI50 (EKVX NSCLC): 4.83 µg/mL (≈ 12.2 µM)
- TGI (EKVX NSCLC): 10.3 µg/mL (≈ 26 µM)
- GI50 (IGROV1 ovarian): 6.03 µg/mL (≈ 15.3 µM)
- TGI (IGROV1 ovarian): 13.2 µg/mL (≈ 33.4 µM)
- GI50 (K-562 leukemia): 4.87 µg/mL (≈ 12.3 µM)
- TGI (K-562 leukemia): 12.1 µg/mL (≈ 30.8 µM)
- GI50 (U251 CNS): 4.52 µg/mL (≈ 11.5 µM)
- TGI (U251 CNS): 9.62 µg/mL (≈ 24.4 µM)
- GI50 (MDA-MB-435): 5.85 µg/mL (≈ 14.8 µM)
- TGI (MDA-MB-435): 11.7 µg/mL (≈ 29.7 µM)
- GI50 (NCI-H460 lung): 5.66 µg/mL (≈ 14.3 µM)
- TGI (NCI-H460 lung): 11.9 µg/mL (≈ 30 µM)
- GI50 (SNB-19 CNS): 5.03 µg/mL (≈ 12.8 µM)
- TGI (SNB-19 CNS): 10.3 µg/mL (≈ 26 µM)
- GI50 (SF-268 CNS): 5.16 µg/mL (≈ 13.1 µM)
- TGI (SF-268 CNS): 10.4 µg/mL (≈ 26.4 µM)
- GI50 (HCT-116 colon): 5.94 µg/mL (≈ 15.1 µM)
- TGI (HCT-116 colon): 11.9 µg/mL (≈ 30.1 µM)
- GI50 (HCT-15 colon): 6.36 µg/mL (≈ 16.1 µM)
- TGI (HCT-15 colon): 12.2 µg/mL (≈ 30.8 µM)
- GI50 (ACHN renal): 5.95 µg/mL (≈ 15.1 µM)
- TGI (ACHN renal): 11.1 µg/mL (≈ 28.2 µM)
- GI50 (OVCAR-4 ovarian): 4.46 µg/mL (≈ 11.3 µM)
- TGI (OVCAR-4 ovarian): 9.62 µg/mL (≈ 24.4 µM)
- GI50 (SNB-75 CNS): 4.88 µg/mL (≈ 12.4 µM)
- TGI (SNB-75 CNS): 9.7 µg/mL (≈ 24.6 µM)
- GI50 (OVCAR-3 ovarian): 4.74 µg/mL (≈ 12 µM)
- TGI (OVCAR-3 ovarian): 9.64 µg/mL (≈ 24.4 µM)
- GI50 (KM12 colon): 6.06 µg/mL (≈ 15.3 µM)
- TGI (KM12 colon): 11.4 µg/mL (≈ 29 µM)
- GI50 (RPMI-8226 leukemia): 3.87 µg/mL (≈ 9.82 µM)
- TGI (RPMI-8226 leukemia): 10.9 µg/mL (≈ 27.7 µM)
- GI50 (SF-539 CNS): 5.74 µg/mL (≈ 14.5 µM)
- TGI (SF-539 CNS): 11.1 µg/mL (≈ 28.2 µM)
- GI50 (HOP-92 NSCLC): 2.33 µg/mL (≈ 5.89 µM)
- TGI (HOP-92 NSCLC): 7.98 µg/mL (≈ 20.2 µM)
- GI50 (UACC-62 melanoma): 4.99 µg/mL (≈ 12.6 µM)
- TGI (UACC-62 melanoma): 9.87 µg/mL (≈ 25 µM)
- GI50 (M14 melanoma): 6.69 µg/mL (≈ 17 µM)
- TGI (M14 melanoma): 13 µg/mL (≈ 32.9 µM)
- GI50 (COLO 205 colon): 6.07 µg/mL (≈ 15.4 µM)
- TGI (COLO 205 colon): 11.4 µg/mL (≈ 28.9 µM)
- GI50 (TK-10 renal): 5.31 µg/mL (≈ 13.5 µM)
- TGI (TK-10 renal): 10.4 µg/mL (≈ 26.2 µM)
- GI50 (DU-145 prostate): 5.34 µg/mL (≈ 13.5 µM)
- TGI (DU-145 prostate): 10.4 µg/mL (≈ 26.4 µM)
- GI50 (MCF7 breast): 5.65 µg/mL (≈ 14.3 µM)
- TGI (MCF7 breast): 11.4 µg/mL (≈ 29 µM)
- GI50 (HOP-62 NSCLC): 5.37 µg/mL (≈ 13.6 µM)
- TGI (HOP-62 NSCLC): 10.8 µg/mL (≈ 27.4 µM)
- GI50 (OVCAR-8 ovarian): 5.64 µg/mL (≈ 14.3 µM)
- TGI (OVCAR-8 ovarian): 11.6 µg/mL (≈ 29.4 µM)
- GI50 (HL-60(TB) leukemia): 7.56 µg/mL (≈ 19.2 µM)
- TGI (HL-60(TB) leukemia): 15.2 µg/mL (≈ 38.6 µM)
- GI50 (MDA-MB-231 breast): 4.4 µg/mL (≈ 11.2 µM)
- TGI (MDA-MB-231 breast): 9.29 µg/mL (≈ 23.6 µM)
- GI50 (RXF 393 renal): 5.04 µg/mL (≈ 12.8 µM)
- TGI (RXF 393 renal): 10.1 µg/mL (≈ 25.6 µM)
- GI50 (CCRF-CEM leukemia): 5.18 µg/mL (≈ 13.1 µM)
- TGI (CCRF-CEM leukemia): 12.4 µg/mL (≈ 31.3 µM)
- GI50 (NCI-H23 lung): 4.73 µg/mL (≈ 12 µM)
- TGI (NCI-H23 lung): 9.73 µg/mL (≈ 24.6 µM)
- GI50 (SW-620 colon): 6.19 µg/mL (≈ 15.7 µM)
- TGI (SW-620 colon): 11.7 µg/mL (≈ 29.6 µM)
- GI50 (SF-295 CNS): 5.27 µg/mL (≈ 13.3 µM)
- TGI (SF-295 CNS): 11 µg/mL (≈ 27.9 µM)
- GI50 (786-0 renal): 6.19 µg/mL (≈ 15.7 µM)
- TGI (786-0 renal): 11.7 µg/mL (≈ 29.7 µM)
- GI50 (UO-31 renal): 5.68 µg/mL (≈ 14.4 µM)
- TGI (UO-31 renal): 11.6 µg/mL (≈ 29.4 µM)
- GI50 (NCI/ADR-RES ovarian): 20.4 µg/mL (≈ 51.6 µM)
- TGI (NCI/ADR-RES ovarian): 37.5 µg/mL (≈ 95 µM)
- GI50 (SK-MEL-2 melanoma): 7.58 µg/mL (≈ 19.2 µM)
- TGI (SK-MEL-2 melanoma): 14 µg/mL (≈ 35.5 µM)
- GI50 (MOLT-4 leukemia): 5.5 µg/mL (≈ 13.9 µM)
- TGI (MOLT-4 leukemia): 12.3 µg/mL (≈ 31.3 µM)
- GI50 (OVCAR-5 ovarian): 5.86 µg/mL (≈ 14.9 µM)
- TGI (OVCAR-5 ovarian): 11.2 µg/mL (≈ 28.3 µM)
- GI50 (HS 578T breast): 5.34 µg/mL (≈ 13.5 µM)
- TGI (HS 578T breast): 12.7 µg/mL (≈ 32.3 µM)
- GI50 (HT29 colon): 4.59 µg/mL (≈ 11.6 µM)
- TGI (HT29 colon): 10.1 µg/mL (≈ 25.6 µM)
- GI50 (HCC-2998 colon): 5.76 µg/mL (≈ 14.6 µM)
- TGI (HCC-2998 colon): 11.1 µg/mL (≈ 28.1 µM)
- GI50 (UACC-257 melanoma): 5.49 µg/mL (≈ 13.9 µM)
- TGI (UACC-257 melanoma): 11 µg/mL (≈ 27.8 µM)
- GI50 (SK-OV-3 ovarian): 5.67 µg/mL (≈ 14.4 µM)
- TGI (SK-OV-3 ovarian): 10.8 µg/mL (≈ 27.5 µM)
- GI50 (NCI-H226 lung): 4.36 µg/mL (≈ 11.1 µM)
- TGI (NCI-H226 lung): 10 µg/mL (≈ 25.4 µM)
- GI50 (A498 renal): 4.82 µg/mL (≈ 12.2 µM)
- TGI (A498 renal): 11 µg/mL (≈ 27.9 µM)
- GI50 (T-47D breast): 2.99 µg/mL (≈ 7.57 µM)
- TGI (T-47D breast): 8.99 µg/mL (≈ 22.8 µM)
- GI50 (LOX IMVI melanoma): 5.11 µg/mL (≈ 12.9 µM)
- TGI (LOX IMVI melanoma): 10.4 µg/mL (≈ 26.4 µM)
- GI50 (NCI-H522 lung): 4.84 µg/mL (≈ 12.3 µM)
- TGI (NCI-H522 lung): 10.2 µg/mL (≈ 25.9 µM)
- GI50 (MALME-3M melanoma): 6.5 µg/mL (≈ 16.5 µM)
- TGI (MALME-3M melanoma): 13.2 µg/mL (≈ 33.4 µM)
- GI50 (SK-MEL-28 melanoma): 6.22 µg/mL (≈ 15.8 µM)
- TGI (SK-MEL-28 melanoma): 11.4 µg/mL (≈ 29 µM)
- GI50 (SN12C renal): 5.11 µg/mL (≈ 13 µM)
- TGI (SN12C renal): 10.1 µg/mL (≈ 25.5 µM)
- GI50 (BT-549 breast): 6.1 µg/mL (≈ 15.4 µM)
- TGI (BT-549 breast): 11.7 µg/mL (≈ 29.6 µM)
- GI50 (SR leukemia): 4.93 µg/mL (≈ 12.5 µM)
- TGI (SR leukemia): 11.9 µg/mL (≈ 30.3 µM)
- GI50 (PC-3 prostate): 4.9 µg/mL (≈ 12.4 µM)
- TGI (PC-3 prostate): 10.7 µg/mL (≈ 27.1 µM)
- GI50 (CAKI-1 renal): 6.3 µg/mL (≈ 16 µM)
- TGI (CAKI-1 renal): 13.1 µg/mL (≈ 33.2 µM)
- GI50 (A549 NSCLC): 4.88 µg/mL (≈ 12.4 µM)
- TGI (A549 NSCLC): 10.2 µg/mL (≈ 25.9 µM)
- GI50 (SK-MEL-5 melanoma): 4.87 µg/mL (≈ 12.3 µM)
- TGI (SK-MEL-5 melanoma): 9.61 µg/mL (≈ 24.4 µM)
